Measured values published in a melting point compilation (Tetko et al.; mined from patent text by program, amines drawn as free bases though some values may be those of a salt).

| SMILES | melting point [°C] |
| --- | --- |
| CCOC(=O)c1c(CN2CCOCC2)nc2cc(OC)c(OC)cc2c1-c1ccc(OC)cc1 | 165 to 166 |
| Cc1cc(=O)n2cccc(O)c2n1 | 144 to 145 |
| CCCc1ccc2nc(C(=O)OCC)cn2n1 | 54 to 54.5 |
| C1=Cc2cc(C=C(c3ccc4c(c3)C=C4)c3ccc4c(c3)C=C4)ccc21 | 87 to 89 |
| O=C(O)c1cn(C2CC2)c2nc(N3Cc4ccc(CO)cc4C3)c(F)cc2c1=O | > 300 |
| Cc1nc(-c2ccc(Cl)cc2)sc1C(N)=O | 236 to 237 |
| COc1cc2c(cc1C(C)(C)c1ccccc1)OCO2 | 75 to 76 |
| COc1ccc(C(=O)c2cc(-c3ccc(S(C)(=O)=O)cc3)c(N3CCOCC3)s2)cc1 | 154 |
| O=c1oc(=O)n(Cc2ccc(F)cc2)c2ccc(F)cc12 | 107 |
| CC(C)[C@H](NC(=O)OCc1csc(N2CCCC2)n1)C(=O)N[C@@H](Cc1ccccc1)[C@@H](O)C[C@H](Cc1ccccc1)NC(=O)OCc1cncs1 | 165 to 167 |
| COCCOc1cc2ncc(C#N)c(NC3=CC(=O)C(C)=CC3=O)c2cc1OC | 174 to 177 |
| Cn1ncc(/C=C/C(=O)Nc2ccc(OCc3cscn3)cc2)c1-c1ccc(F)cc1 | 171 to 172 |
| Cn1ncc2c1-c1c(Sc3ccccc3)sc(C(=O)O)c1CC2 | 205 to 206 |
| C#CCN1CCc2ccc([N+](=O)[O-])cc2CC1 | 122 to 125 |
| O=C(O)C(O)=CC(=O)c1cn(Cc2ccc(C(F)(F)F)cc2)c(=O)n(Cc2ccc(C(F)(F)F)cc2)c1=O | 176 to 178 |
| COc1cc(OC(C)=O)c(OC)c(CCCCCc2c(OC)c(OC(C)=O)cc(OC)c2OC(C)=O)c1OC(C)=O | 94.5 to 95 |
| CCOC(=O)C1SCCN1C(=S)Nc1cc(Cl)cc(Cl)c1 (stereo not drawn) | 170 to 172 |
| COc1nc2ccccc2nc1NC(=O)N1CCC(c2ccccc2)(c2ccccc2)CC1 | 202 to 204 |
| CN1CCN(CC2=NC(NC(=O)Nc3cccc(C#N)c3)C(=O)N(CC(=O)N(C)c3ccccc3)c3ccccc32)CC1 (stereo not drawn) | 152 to 155 |
| CSc1nc2c(OCc3ccccc3)cccc2n1CCCO | 106 to 107 |
| CCCOc1ccc(COCCO)cc1-c1nc2c(CCC)nn(C)c2c(=O)[nH]1 | 101 to 102 |
| Oc1cc(-c2cc3n(n2)CCCC3)c(F)cc1Cl | 218 to 220 |
| O=C(Nc1cc(C(=O)O)cc(C(=O)O)c1)Oc1ccccc1 | > 300 |

| SMILES | melting point [°C] |
| --- | --- |
| O[C@H](c1ccc(F)cc1)[C@H](Cc1ccc(C(F)(F)F)cc1)NCc1cccc2ccccc12 (racemic) | 94 to 95 |
| O=C(N[C@H](Cc1ccc(C(F)(F)F)cc1)[C@@H](O)c1ccc(F)cc1)c1cc(C(F)(F)F)cc(C(F)(F)F)c1 (racemic) | 150 to 151 |
| Cn1nc2c(-c3ccc(Cl)cc3Cl)cccc2c1CCC#N | 192 to 193 |
| Fc1ccc(-c2[nH]c(=S)sc2CCCl)cc1 | 176 |
| C=C1c2ccccc2C=Cn2c1nnc2S(C)=O (stereo not drawn) | 140 to 142 |
| O=C(O)c1ccc(-c2coc(-c3cccc(C(F)(F)F)c3)n2)cc1 | 268 to 269 |
| O=c1[nH]c2cc(Cl)ccc2c(O)c1-c1ccc2c(c1)OCO2 | > 350 |
| CC(C)(CCCC(=O)O)c1ccc(O)cc1 | 94 to 96 |
| COC(=O)c1ccc(C(=O)NNC(=O)C=Cc2ccccc2)cc1 | 207 |
| O=C(N[C@H](Cc1ccc(C(F)(F)F)c(F)c1)[C@@H](O)c1ccc(F)cc1)c1ccc(F)c2ccccc12 (racemic) | 212 to 213 |
| CCOC(=O)c1sc(SC)c2c1CCc1nc(-c3ccccc3)[nH]c1-2 | 218 to 219 |
| CN1C(=O)N(c2cc(Cl)nc(Cl)c2)C(=O)/C1=C\c1ccc(C#N)cc1 | 230 |
| O=[N+]([O-])c1cn(CC(I)=C(I)I)c(Cl)c1Cl | 126 to 127 |
| CCCCNc1cncc(C#N)c1 | 73 |
| CC1=C(C(=O)Nc2cc(Cl)ccc2Cl)SC2=NCCN21 | 217 to 219 |
| NC(=O)C1CCc2c(C(=O)c3cccs3)cccc21 (stereo not drawn) | 164 to 166 |
| O=c1cc(N2CCOCC2)[nH]c2c(-c3ccc([N+](=O)[O-])c4c3oc3ccccc34)cccc12 | 247 |
| O=C(O)c1cc(Cl)ccc1SSc1ccc(Cl)cc1C(=O)O | 320 to 324 |
| CCC1(c2cn(Cc3ccc(Cl)cc3)cn2)Cc2ccccc2C1=O (stereo not drawn) | 150 to 154 |
| O=C(Nc1ccc(-n2nc(C(F)(F)F)cc2C(F)(F)F)cc1)c1ccc(I)cc1 | 196 to 198 |
| COc1ccc(COc2ccc(NC(C)=O)cc2C(=O)C=Cc2ccc(OCc3ccccc3)cc2)cc1 | 201 to 202 |
| CNC(=O)C(NC(=O)Nc1n[nH]c(=S)s1)c1ccccc1 (stereo not drawn) | 240 to 241 |
| O[C@@H](CNCCOc1ccc2cc(-c3ccon3)oc2c1)COc1ccccc1 | 107 to 110 |

| SMILES | melting point [°C] |
| --- | --- |
| N#Cc1ccc(-c2ccc(-c3ccc(C#N)cn3)o2)nc1 | 311 to 312 |
| COC(=O)c1sc(OC)c(Br)c1O | 107 to 109 |
| CN1CCN(c2cccc3c2C[C@H](NC(=O)c2ccc(C(=O)N4CCOCC4)cc2)CO3)CC1 | 222 |
| COc1ccc(C2CCN(c3c(C)c(C)c4c(c3C)C(O)(c3ccccc3)C(C)(C)O4)CC2)cc1OC (stereo not drawn) | 143 to 145 |
| COCCCNC(=O)c1cc(C(=O)OC)c(O)c2ncc(Cc3ccc(F)cc3)cc12 | 166 to 167 |
| O=Cc1cnc2sc3c(n12)CCCCCC3 | 106 to 107 |
| N#CC1=C(c2cccs2)Nc2n[nH]cc2C1c1cccc2nsnc12 (stereo not drawn) | 254 |
| O=C(NCc1cccnc1)C(F)(F)F | 102 to 104 |
| NC(=O)c1c(Cl)cc(Cl)c(C(=O)O)c1Cl | 280 |
| CCOC(=O)CNC(=O)c1nnc2ccc(Cl)nn12 | 133 to 134 |
| CN1CCN(C2=Nc3cc(Cl)ccc3Nc3nn(C)nc32)CC1 | 200 to 203 |
| COc1ccc(CCNC(=O)COCCC(=O)NCCc2ccccc2)cc1OC | 108 to 110 |
| CC(C)(C)c1cc(C=C2SCN(CC(N)=O)C2=O)cc(C(C)(C)C)c1O | 232 |
| Nc1c(-c2ccc(Cl)cc2)nc2ccc(Cl)cc2c1C(=O)O | 240 to 241 |
| COc1cc(Br)nc2[nH]cc(-c3ccnc(N)n3)c12 | > 210 |
| CN(CCN(C)c1ccc(OS(=O)(=O)C(F)(F)F)nc1)c1ccc(OS(=O)(=O)C(F)(F)F)nc1 | 146 to 148 |
| Cc1c(NC(=O)c2ccc(OCc3ccc(Cl)cc3)cc2)ccc2cc(CN3CCCC3)cnc12 | 167 to 168 |
| O=C(O)CCCc1ccc(-c2ccc(F)cc2F)cc1 | 76 to 77 |
| Cn1cc(-c2ccccc2)c(=O)c(-c2cccc(S(=O)(=O)c3ccccc3)c2)c1 | 65 to 72 |
| OCC1=CC=C(COc2cccc(O)c2)SS1 | 116 |
| Cc1oc(-c2ccccc2)nc1COc1ccc(CON=C(CCCCCCC(=O)O)c2ccc(F)cc2)cc1 | 56 to 57 |
| CC(=O)C1CCC2C3CCC4CC(O)C(F)CC4(C)C3C(=O)CC12C (stereo not drawn) | 174 to 178 |

Further lines, results first:

| melting point [°C] | SMILES |
| --- | --- |
| 136 to 138 | CCCc1nc2c(N)nc3ccccc3c2n1CCCC(=O)CC(C)C |
| 223 to 235 | CC(C)(C)c1ccc(-n2c(CC(=O)O)c(C(=O)O)c3cc(Oc4ccc(C(=O)O)cn4)c(Cl)cc32)cc1 |
| 103 to 105 | CC(C)(C)OC(=O)NCC(O)c1ccsc1 (stereo not drawn) |
| 195 | COC(=O)C1=C(C)NC(C)=C(C(=O)n2ccnc2)C1c1cccc2nonc12 (stereo not drawn) |
| 100 to 101 | CCOC(=O)C1=C(C)N(C)C(C)=C(C(=O)OC(C)C)C1c1cccc([N+](=O)[O-])c1 (stereo not drawn) |
| 113 to 115 | N[C@@H](Cc1ccccc1)C(=O)NC(=O)N(CCCl)N=O |
| 176 to 180 | NS(=O)(=O)c1cc2[nH]c(CCCCc3ccccc3)nc2cc1Cl |
| 213 to 216 | O=C(NN=C1C=CC=NC1)c1cccnc1 |
| 165 to 168 | CC(=CCCC(C)C1CCC2(C)C3=CCC4C(C)(CCC5(OCCO5)C4(C)C)C3=CCC12C)CO (stereo not drawn) |
| 152 to 153 | Cc1ccc(Nc2nnc(Cc3ccncc3)c3ccccc23)cc1 |
| 55 to 57 | O=C(Cl)C12CC(C(=O)Cl)(C1)C2 |
| 182 | CS(=O)(=O)c1ccc(-c2nn(Cc3ccccc3)c(=S)cc2-c2ccc(F)cc2)cc1 |
| 272 to 274 | CN(C)Cc1ccc(-c2cc3c(Nc4ccc(OCc5ccccc5)cc4)ncnc3[nH]2)cc1 |
| 154 to 155 | Cc1ccc(Cc2cnc(NCCSCc3csc(CN(C)C)n3)[nH]c2=O)cn1 |
| 149 to 151 | CCN(C(=O)C1CC1)c1cccc(-c2ccc3nnc(C)n3n2)c1 |
| 112 to 114 | COc1cc(F)c(C(O)C#N)cc1OC (stereo not drawn) |
| 109 to 110 | CCOC(=O)Cc1nc(-c2ccc(Cl)cc2)oc1Sc1ccccc1 |
| 112 to 113 | Clc1ccc(NC2COc3ccc(Br)cc32)c(Cl)c1 (stereo not drawn) |
| 182 | O=S1(=O)c2ccccc2C(c2ccccc2)N1CCCN1CCN(c2ccc(F)cc2)CC1 (racemic) |
| 165 to 166 | CC(=O)ONC(=O)N1CCC(=Cc2cc(C(C)(C)C)c(O)c(C(C)(C)C)c2)C1=O |
| 139 to 141 | CC(C)(C)N1C(O)c2cccc(Cl)c2S1(=O)=O (stereo not drawn) |
| 136 to 138 | CCOCc1cc2cc(Cl)ccc2oc1=Nc1ccc(OC)cc1 |
| 115 to 119 | Cn1c(Br)c(Br)c(Br)c1C#N |
| 80 to 83 | Cc1cc2cc(C3CCN(C(=O)C4CC4)CC3)oc2cc1C |
| 183 to 184 | Cc1nc(C)c(-c2ccnc(Nc3cccc(CN)c3)n2)s1 |
| 163 | COc1cc(-c2nc3ccc(OCC(C)N(C)C)cc3n2Cc2ccccc2C(F)(F)F)cc(OC)c1OC (stereo not drawn) |
| 125 to 130 | c1cc(-c2n[nH]c3c2Cc2ccc(CN4CCNCC4)cc2-3)cs1 |
| 85 to 86 | OCCCc1ccc2ccccc2c1O |
| 144 to 146 | Cn1ncnc1COc1nc2c(cc1-c1ccccc1)nnn2-c1ccccc1F |
| 218 to 220 | CCc1cc(C(=O)c2ccccc2Cl)c(-n2cnnc2CNC(=O)c2cc3ccccc3n2CC(=O)O)s1 |
